The nature of assay [1]: Sensory panel rating of bitterness reduction of a caffeine solution. The settings on record: for Bitterness rating with test substance (0-100 scale): expert panel mean, rating 0 [nicht bitter] to 100 [extrem bitter]; for % Reduktion des Bitter-Eindrucks (Signifikanz): 500 ppm Coffein, calculated from panel means versus solution without test substance. In kind it is in vivo. An excerpt:
(§1) Um die Reduzierung (d.h. die Maskierung oder Verminderung) des Bitter-Eindrucks in einer Probe zu quantifizieren, wurde die Bitterkeit einer Lösung enthaltend 500 ppm Coffein oder 300 ppm Theobromin oder 100 ppm Naringin von einer Expertengruppe jeweils mit einer Probe verglichen, die 500 ppm Coffein oder 300 ppm Theobromin oder 100 ppm Naringin und zusätzlich die jeweils angegebene Menge einer (hinsichtlich der Fähigkeit zur Bitter-Reduzierung) zu beurteilenden Substanz enthielt (Einstufung: 0 [nicht bitter] bis 100 [extrem bitter]). Für die Auswertung, d.h. die Berechnung der Reduktion (in %) des Bittereindrucks wurden jeweils die Durchschnittswerte der Einschätzungen der Expertengruppe verwendet. Die Ergebnisse sind in Tabelle 1 zusammengefasst: Tabelle 1: Bitterreduzierung einer Bitterstofflösung

A short description of assay [2]: Sensory panel rating of bitterness reduction of a theobromine solution. In kind it is in vivo.
From the text: as §1

Where [3] appears, read: 10 ppm test substance in 500 ppm Coffein solution.

For `COc1ccc(/C=C/c2cccc(O)c2C(=O)O)cc1O` [Substanz (6), 2-Hydroxy-6-[(E)-2-(3-hydroxy-4-methoxyphenyl)vinyl]benzoesäure], the “Bitterness rating with test substance (0-100 scale)” value in assay [1] (setting [3]) is on record as 37.50 ± 18.84. The “% Reduktion des Bitter-Eindrucks (Signifikanz)” value in assay [1] (10 ppm test substance) was 18.3 % (p = 0.15).
`COc1ccc(C(O)Cc2cccc(O)c2C(=O)O)cc1O` (single isomer, unassigned) [Substanz (3), 2-Hydroxy-6-[2-hydroxy-2-(3-hydroxy-4-methoxyphenyl)ethyl]benzoesäure]: the “Bitterness rating with test substance (0-100 scale)” value is reported as 41.25 + 21.83 in assay [1] (setting [3]) and 38.85 + 19.19 in assay [1] (25 ppm test substance in 500 ppm Coffein solution). The “% Reduktion des Bitter-Eindrucks (Signifikanz)” value in assay [1] (10 ppm test substance) is 14.0 % (p = 0.29); in assay [1] (25 ppm test substance), 26.5 % (p < 0.05); in assay [2] (25 ppm test substance, 300 ppm Theobromin, calculated from panel means versus solution without test substance), 16.5 % (p = 0.21). Also, in assay [2] (25 ppm test substance in 300 ppm Theobromin solution, expert panel mean, rating 0 [nicht bitter] to 100 [extrem bitter]), the “Bitter-Eindruck (0-100) mit Testsubstanz” value is given as 39.76 ± 20.91.

These data come from patent publication EP3641564B1, “TASTE MODULATING FLAVORING SUBSTANCES” (Symrise AG, priority 2017, dated 2018).
